Laboratory results reported in patent publication US9518901B2, “Pretreatment method of biological sample, detection method of RNA, and pretreatment kit” (KABUSHIKI KAISHA DNAFORM, priority 2011, dated 2016).

Key:
[1] = test system: template RNA, influenza A(H3N2) NA region 675-1075 bases; assay: RT-SmartAmp nucleic acid amplification inhibition due to SDS (DNA polymerase inhibitory activity), without rhinal mucosa; assay type: biochemical; conditions: 0.5% Triton X-100 in reaction solution, 5 μL of 0.1% SDS solution added; FIG. 10
[2] = cited from earlier work

Compound	nucleic acid amplification activity (mitigation of inhibition due to SDS) [1]	pKa [2]
Triton X-100	prominent nucleic acid amplification was recognized	
O=S(=O)(O)CCN1CCOCC1 [MES]		6.15
